What was measured:
mice with EAE = experiment: Experimental autoimmune encephalomyelitis (EAE) clinical score; format: in vivo, mouse; conditions: prophylactic, 27 days
Experimental: Fifty-six ten-weeks-old female C57bl6 mice were immunized in the flank and neck with 200 μg/mouse MOG35-55 peptide (Hooke) emulsified in Complete Freund's Adjuvant containing Mycobacterium tuberculosis. Immediately after immunization, treatment was started and lasted for 27 days. Treatment consisted of twice a day a s.c. injection with a 1% DMSO in 0.5% methylcellulose solution, roflumilast (0.3 mg/kg or 3 mg/kg in vehicle) or gebr32a (0.3 mg/kg in vehicle). All animals were sacrificed at day 27. Animals were neurologically scored for clinical signs on a daily basis using the following scores: 0=normal behavior, 0.5=distal limp tail, 1=complete limp tail, 2=limp tail and hind leg inhibition, 2.5=limp tail and weakness of hind legs, 3=limp tail and dragging of hind legs, 3.5=limp tail, complete paralysis of hind legs and animal is unable to right itself when placed on its side, 4=limp tail, complete hind leg paralysis and partial front leg paralysis, 4.5=limp tail, complete hind leg paralysis, partial front leg paralysis and no movement around the cage, 5=death.
Ten-weeks-old female C57bl6 mice (n=56) were immunized in the flank and neck with 200 μg/mouse MOG35-55 peptide (Hooke) emulsified in Complete Freund's Adjuvant containing Mycobacterium tuberculosis. Immediately after immunization, treatment was started and lasted for 27 days. […]

[1] = tested on: cuprizone demyelinated mice; experiment: In vivo remyelination in cuprizone-demyelinated mice (MBP IHC, mbp qPCR, TEM G ratio); parameters: species or system mouse
Excerpt: (§1) FIG. 8: MBP expression in the corpus callosum upon PDE4 inhibition. A) IHC; B no IHC. Forty-two eleven-weeks-old male C57bl6 mice were either subjected to a cuprizone treatment to induce demyelination (n=32) or left without treatment (control; n=10) for six weeks (day 0-42). From day 40 till day 49, the control mice and part of the cuprizone-treated mice (vehicle; n=10) received a vehicle treatment, receiving a s.c. injection with a 1% DMSO in 0.5% methylcellulose solution twice a day. The remaining cuprizone-treated mice received a roflumilast treatment (roflu 1 mg/kg (n=11) or roflu 3 mg/kg (n=11) in vehicle) twice a day from day 40-49. All animals were sacrificed at day 49. Brains were isolated at anteroposterior coordinates from −0.3 to −1.5 mm was cut in the midsagittal plane and used for slicing and immunohistochemistry (IHC) against MBP.
as §1, with “9:” for “8:”, “hippocampus” for “corpus callosum”, “inhibition.” for “inhibition. A) IHC; B no IHC.”, “immunohistochemistry” for “immunohistochemistry (IHC)”
FIG. 10: MBP expression in the corpus callosum upon PDE4 inhibition. C57bl6 mice were either subjected to a cuprizone treatment to induce demyelination or left without treatment for six weeks (day 0-42). From day 40 till day 49, the control mice and part of the cuprizone-treated mice received a vehicle treatment, receiving a s.c. injection with a 1% DMSO in 0.5% methylcellulose solution twice a day. The remaining cuprizone-treated mice received a roflumilast treatment (roflu 1 mg/kg or roflu 3 mg/kg in vehicle) twice a day from day 40-49. All animals were sacrificed at day 49. The left part of the corpus callosum at bregma Y-Z was used for TEM and subsequent G ratio measurement. G ratio is the ratio of the inner axonal diameter to the total outer diameter representing myelination of axons (e.g. a higher G ratio represents a demyelination). […] Data are expressed as mean±SEM with. (*p<0.05, **p<0.01, ***p<0.001). Control (n=5), vehicle (n=5), roflu 1 mg/kg (n=7), and roflu 3 mg/kg (n=9).
FIG. 12: MBP expression in the corpus callosum upon PDE4 inhibition. Thirty-six eleven-weeks-old male C57bl6 mice were either subjected to a cuprizone treatment to induce demyelination (n=27) or left without treatment (control; n=9) for six weeks (day 0-42). From day 40 till day 49, the control mice and part of the cuprizone-treated mice (vehicle; n=9) received a vehicle treatment, receiving a s.c. injection with a 1% DMSO in 0.5% methylcellulose solution twice a day. The remaining cuprizone-treated mice received a gebr32a treatment (gebr32a 0.1 mg/kg (n=9) or gebr32a 0.3 mg/kg (n=9) in vehicle) twice a day from day 40-49. All animals were sacrificed at day 49. Brains were isolated at anteroposterior coordinates from −0.3 to −1.5 mm was cut in the midsagittal plane and used for slicing and immunohistochemistry against MBP.
FIG. 13. MBP expression in the dendate gyrus upon PDE4D inhibition. Thirty-six eleven-weeks-old male C57bl6 mice were either subjected to a cuprizone treatment to induce demyelination (n=27) or left without treatment (control; n=9) for six weeks (day 0-42). From 20 day 40 till day 49, the control mice and part of the cuprizone-treated mice (vehicle; n=9) received a vehicle treatment, receiving a s.c. injection with a 1% DMSO in 0.5% methylcellulose solution twice a day. […]

[2] = 0.1 mg/kg s.c. twice a day, day 40-49
[3] = 0.3 mg/kg s.c. twice a day, day 40-49, vs vehicle treated mice
[4] = 3 mg/kg s.c. twice a day, day 40-49
[5] = 3 mg/kg s.c. twice a day, day 40-49, vs vehicle-treated cuprizone mice

Row | SMILES | Clinical score of EAE mice (mice with EAE; 0.3 mg/kg s.c. twice a day) | MBP expression in the corpus callosum (IHC) [1, 2] | MBP expression in the dendate gyrus (IHC) [1, 2] | MBP expression in the corpus callosum (IHC) [1, 3] | MBP expression in the dendate gyrus (IHC) [1, 3] | Remyelination-inducing dosage compared to roflumilast treatment ([1]; lower dosage, 0.3 mg/kg vs 3 mg/kg) [fold] | Disease score of EAE mice, dose dependence (mice with EAE; 0.3 mg/kg and 3 mg/kg s.c. twice a day) | Relative mbp gene expression in the corpus callosum (qPCR) ([1]; 1 mg/kg and 3 mg/kg s.c. twice a day, day 40-49) | G ratio in the corpus callosum (TEM) ([1]; 1 mg/kg s.c. twice a day, day 40-49) | mbp mRNA expression in the corpus callosum (qPCR) compared to the control ([1]; 1 mg/kg s.c. twice a day, vs non-demyelinated control) | G ratio in the corpus callosum (TEM) [1, 4] | MBP expression in hippocampus CA1 and CA3 (IHC) [1, 4] | MBP expression in the corpus callosum (IHC) [1, 5] | MBP expression in the dendate gyrus (IHC) [1, 5]
1 | OC(CN1CCOCC1)Cn1ccc(-c2ccc(OC(F)F)c(OC3CCCC3)c2)n1 (centres unmarked) [Gebr32a] | no effect | not sufficient to significantly improve MPB expression | not sufficient to significantly improve MPB expression | significantly increased MBP expression | significantly increased MBP expression | 10 | – | – | – | – | – | – | – | –
2 | O=C(Nc1c(Cl)cncc1Cl)c1ccc(OC(F)F)c(OCC2CC2)c1 [roflumilast] | – | – | – | – | – | – | dose-dependent decrease in disease score | not altered | re-establishment of the G ratio to control levels | reduced mbp mRNA expression | re-establishment of the G ratio to control levels | not in the cornu amonis 1 (CA1) or 3 (CA3) | increased MBP expression | increased MBP expression

From patent US20210145838A1, “SELECTIVE PDE4D INHIBITORS AGAINST DEMYELINATING DISEASES” (Universiteit Hasselt, priority 2018, published 2021)
